Structures can show the parent of a compound that is named as a salt. Where two headings read alike, the source gives them in different places.

Assay [1] has as its target T1, SARS-CoV-2 PLpro (nsp3 1564–1878) (Severe acute respiratory syndrome coronavirus 2, UniProt P0DTD1). The experiment in a line: biochemical. Set-up: FRET-quenched peptide (Pro3) cleavage by PLpro, 10 min pre-incubation, slope over 20 min, normalised to no-compound control. The note with it: high concentration screen, read-out: % of control remaining.
The target of assay [2] is T1, SARS-CoV-2 PLpro (nsp3 1564–1878). The experiment in a line: biochemical. As to conditions: low concentration screen, read-out: % of control remaining. Further details: FRET-quenched peptide (Pro3) cleavage by PLpro, 10 min pre-incubation, slope over 20 min, normalised to no-compound control.

As for `CCCN1C[C@H](CSC)C[C@@H]2c3cccc4[nH]cc(c34)C[C@H]21` [Pergolide methanesulfonate], in assay [1] (Well no.=1257), the remaining activity at 3.75 µM turned out to be 111%. Further, in assay [2] (Well no.=1257), the remaining activity at 1.25 µM was 112%.

For `OC[C@H]1NC[C@H](O)[C@@H](O)[C@@H]1O` [1-Deoxynojirimycin hydrochloride], the remaining activity at 3.75 µM in assay [1] (Well no.=586) amounted to 102%. Also, the remaining activity at 1.25 µM in assay [2] (Well no.=586) was found to be 102%.

Regarding `CC1=C2C(=O)[C@H]3[C@@H](CC=C4C[C@@H](O)CC[C@@]43C)[C@@H]2CC[C@]12O[C@@H]1C[C@H](C)CN[C@H]1[C@H]2C` [Jervine], in assay [1] (Well no.=3367), the remaining activity at 3.75 µM was 96.2%. Moreover, in assay [2] (Well no.=3367), the remaining activity at 1.25 µM was 92%.

`COc1c2ccoc2cc2oc(=O)ccc12` [Bergapten]: the remaining activity at 3.75 µM in assay [1] (Well no.=3789) is 87%. Also, the remaining activity at 1.25 µM in assay [2] (Well no.=3789) was determined as 92.7%.

Turning to `COc1ccccc1N1CCN(CCN(C(=O)c2ccc(I)cc2)c2ccccn2)CC1` [p-MPPI hydrochloride], the remaining activity at 3.75 µM in assay [1] (Well no.=1137) came out at 102%. Besides, the remaining activity at 1.25 µM in assay [2] (Well no.=1137) came out at 97.8%.

For `CN1CCc2cccc3c2[C@H]1Cc1ccc(O)c(O)c1-3` [Apomorphine hydrochloride hemihydrate], in assay [1] (Well no.=349), the remaining activity at 3.75 µM turned out to be 103%. The remaining activity at 1.25 µM in assay [2] (Well no.=349) was determined as 99.6%.

For `CC(=O)Nc1ccc(CC(=O)O)cc1` [Actarit], the remaining activity at 3.75 µM in assay [1] (Well no.=1907) was 95.2%. In addition, the remaining activity at 1.25 µM in assay [2] (Well no.=1907) worked out at 96.1%.

Turning to `CC(C)(F)C[C@H](N[C@@H](c1ccc(-c2ccc(S(C)(=O)=O)cc2)cc1)C(F)(F)F)C(=O)NC1(C#N)CC1` [Odanacatib (MK-0822)], the remaining activity at 3.75 µM in assay [1] (Well no.=8836) worked out at 92.8%. Further, in assay [2] (Well no.=8836), the remaining activity at 1.25 µM was 88.7%.

As to `Nc1ccc(C(=O)NCC(=O)O)cc1` [4-Aminohippuric Acid], the remaining activity at 3.75 µM was determined as 95.3% in assay [1] (Well no.=5181) and 103% in assay [1] (Well no.=6349). The results for the remaining activity at 1.25 µM in assay [2] (Well no.=5181) and in assay [2] (Well no.=6349) were 95.9% and 105%, respectively.

Consider `C[C@@H]1O[C@@H](OC[C@H]2O[C@@H](Oc3cc(O)c4c(=O)cc(-c5ccc(O)cc5)oc4c3)[C@H](O)[C@@H](O)[C@@H]2O)[C@H](O)[C@H](O)[C@H]1O` [Isorhoifolin], for which the remaining activity at 3.75 µM in assay [1] (Well no.=3297) amounted to 104%. In addition, in assay [2] (Well no.=3297), the remaining activity at 1.25 µM is 99.4%.

For `COC(=O)C1=C(C#N)NC(C)=C(C(=O)OC(C)C)C1c1cccc([N+](=O)[O-])c1` (stereo not shown) [5-isopropyl 3-methyl 2-cyano-6-methyl-4-(3-nitrophenyl)-1,4-dihydro-3,5-pyridinedicarboxylate], the remaining activity at 3.75 µM in assay [1] (Well no.=6056) was found to be 89.3%. In addition, the remaining activity at 1.25 µM in assay [2] (Well no.=6056) was determined as 94%.

As for `Cc1cc(/C(O)=C2\C(=O)C(=O)N(CCCN3CCOCC3)C2c2ccncc2)ccc1OCc1ccccc1` (stereo not shown) [SBC-115076], the remaining activity at 3.75 µM in assay [1] (Well no.=7844) is 95.8%. For the same compound, in assay [2] (Well no.=7844), the remaining activity at 1.25 µM came to 101%.

`COc1nccc(-c2c(-c3ccc(F)cc3)ncn2[C@H]2CC[C@H](O)CC2)n1` [SB 239063]: in assay [1] (Well no.=2667), the remaining activity at 3.75 µM was 98%. Also, the remaining activity at 1.25 µM in assay [2] (Well no.=2667) was determined as 93%.

Consider `CN1C[C@H](O)[C@@H](O)[C@H](O)[C@H]1CO` [N-Methyl-1-deoxynojirimycin], for which the remaining activity at 3.75 µM in assay [1] (Well no.=1016) stood at 98.3%. Besides, the remaining activity at 1.25 µM in assay [2] (Well no.=1016) was 99.2%.

Take `Clc1ccc(Cn2c(CN3CCCC3)nc3ccccc32)cc1` [Clemizole hydrochloride]: the remaining activity at 3.75 µM in assay [1] (Well no.=226) is 98%. Moreover, the remaining activity at 1.25 µM in assay [2] (Well no.=226) is 98.5%.

`Cc1cc(Cn2cnc3c2C[C@@H](C(=O)O)N(C(=O)C(c2ccccc2)c2ccccc2)C3)ccc1N(C)C` [PD 123319 (ditrifluoroacetate)]: the remaining activity at 3.75 µM in assay [1] (Well no.=7145) was determined as 96.9%; in assay [1] (Well no.=8406), 92.3%. Besides, the remaining activity at 1.25 µM is 97.1% in assay [2] (Well no.=7145) and 94.2% in assay [2] (Well no.=8406).

Take `C[C@@H]1CN(c2c(F)c(N)c3c(=O)c(C(=O)O)cn(C4CC4)c3c2F)C[C@H](C)N1` [Sparfloxacin]: in assay [1] (Well no.=2251), the remaining activity at 3.75 µM came to 97.4%. In addition, the remaining activity at 1.25 µM in assay [2] (Well no.=2251) turned out to be 95.3%.

In the case of `CN(CCOc1ccc(CC2SC(=O)NC2=O)cc1)c1ccccn1` (stereo not shown) [Rosiglitazone (Avandia)], the remaining activity at 3.75 µM in assay [1] (Well no.=4924) was 89.9%. Besides, in assay [2] (Well no.=4924), the remaining activity at 1.25 µM came to 95.4%.

Take `Cc1ccc2c(=O)c3cccc(CC(=O)O)c3oc2c1C` [Vadimezan]: the remaining activity at 3.75 µM in assay [1] (Well no.=8465) worked out at 97.4%. Moreover, the remaining activity at 1.25 µM in assay [2] (Well no.=8465) amounted to 104%.

Turning to `Cc1nc(N=Nc2ccc(S(=O)(=O)O)cc2S(=O)(=O)O)c(COP(=O)(O)O)c(C=O)c1O` [PPADS], the remaining activity at 3.75 µM in assay [1] (Well no.=1217) came to 101%. In addition, the remaining activity at 1.25 µM in assay [2] (Well no.=1217) was determined as 102%.

With `Cc1cc(Nc2ccc(NC(=O)c3ccc(Nc4ccnc5ccccc45)cc3)cc2)nc(N)n1` [SGI-1027], the remaining activity at 3.75 µM in assay [1] (Well no.=5518) worked out at 102%. Moreover, the remaining activity at 1.25 µM in assay [2] (Well no.=5518) was determined as 105%.

As to `CC(COc1ccccc1)N(CCCl)Cc1ccccc1` (stereo not shown) [Phenoxybenzamine (hydrochloride)], the remaining activity at 3.75 µM in assay [1] (Well no.=6797) came to 93.2%. Further, in assay [2] (Well no.=6797), the remaining activity at 1.25 µM is 99.8%.

Consider `Cn1c(-c2ccc3c(c2)OCO3)cc(=O)c2ccccc21` [Graveoline], for which the remaining activity at 3.75 µM in assay [1] (Well no.=3147) was determined as 104%. For the same compound, the remaining activity at 1.25 µM in assay [2] (Well no.=3147) worked out at 102%.

Take `Cc1cc(Cn2c(=O)n(Cc3cnc(C)s3)c(=O)c3cc(S(=O)(=O)NC4(C)CC4)ccc32)n(C)n1` [PDD 00017273]: the remaining activity at 3.75 µM in assay [1] (Well no.=8182) came out at 98.5%. Besides, the remaining activity at 1.25 µM in assay [2] (Well no.=8182) was determined as 105%.

In the case of `CC(CN(C)C)CN1c2ccccc2CCc2ccccc21` (stereo not shown) [Trimipramine maleate], the remaining activity at 3.75 µM in assay [1] (Well no.=1333) is 102%. Further, in assay [2] (Well no.=1333), the remaining activity at 1.25 µM is 104%.

For `CCCCC/C=C\C/C=C\C/C=C\C=C\[C@H](CCCC(=O)O)OO` [5(S)-HPETE], the remaining activity at 3.75 µM in assay [1] (Well no.=4327) worked out at 103%. The remaining activity at 1.25 µM in assay [2] (Well no.=4327) was 106%.

Regarding `COC(=O)CCc1ccc(OCC(O)CNC(C)C)cc1` (stereo not shown) [Esmolol (hydrochloride)], in assay [1] (Well no.=6651), the remaining activity at 3.75 µM is 107%. For the same compound, in assay [2] (Well no.=6651), the remaining activity at 1.25 µM is 105%.

`COC(=O)N1CCN(C(=O)Cc2ccc(Cl)c(Cl)c2)C(CN2CCCC2)C1` (stereo not shown) [GR-89696 fumarate]: the remaining activity at 3.75 µM in assay [1] (Well no.=462) was found to be 99.8%. The remaining activity at 1.25 µM in assay [2] (Well no.=462) came to 101%.

As to `CC(=O)C1=C(O)[C@@H]2[C@H]3c4c[nH]c5cccc(c45)C[C@H]3C(C)(C)N2C1=O` [Cyclopiazonic acid], the remaining activity at 3.75 µM in assay [1] (Well no.=3183) worked out at 104%. Besides, in assay [2] (Well no.=3183), the remaining activity at 1.25 µM amounted to 102%.

With `CCC1(c2c[nH]cn2)Cc2ccccc2C1` [Atipamezole (hydrochloride)], the remaining activity at 3.75 µM in assay [1] (Well no.=7481) is 98.7%. The remaining activity at 1.25 µM in assay [2] (Well no.=7481) was found to be 102%.

The values above are taken from article PMC8286840, “Identifying SARS-CoV-2 antiviral compounds by screening for small molecule inhibitors of Nsp3 papain-like protease” (Biochemical Journal, 2021).
